Consider six molecules from patent US20190169181A1, “FUMAGILLOL COMPOUNDS AND METHODS OF MAKING AND USING SAME” (Zafgen, Inc., priority 2016, published 2019).

For one experiment, the target named is T1, recombinant human MetAP2 (Homo sapiens, UniProt P50579).
T1 construct: Flag; made in house
Kind of experiment: Recombinant human MetAP2 enzyme inhibition assay (MAS peptide / amino acid oxidase / Amplex Ultrared readout). The class given is biochemical. The conditions noted are these: Flag tagged human recombinant MetAP2, 25 minutes at 25° C.

Experiment [1] has as its system Diet Induced Obese (DIO) C57BL/6 mice. Description: 10 day DIO mouse model, weight loss vs. vehicle. The class given is in vivo. As to conditions: 240 h; for inhibition in vivo at 0.3 mg/kg: 0.3 mpk sc once a day for 10 days; for inhibition in vivo at 1 mg/kg: 1.0 mpk sc once a day for 10 days. The essentials: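 Male DIO C57BL/6 mice on 60% fat diet, vehicle-acclimated 3 days, then given compound at 0.3 or 1.0 mg/kg SC (10% DMSO in water) once daily for 10 days. Body weight and food intake recorded daily; weight loss versus vehicle, with hematology and blood chemistry on Day 11.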

Experiment [2] relates to rat DIO model (Sprague Dawley rats on 45% High Fat diet). Description: 11 day rat DIO model, weight loss vs. vehicle. As to conditions: for Rat @ 0.3 mpk sc (%) weight loss vs. vehicle: 0.3 mpk sc once a day for 11 days; for Rat @ 1.0 mpk sc (%) weight loss vs. vehicle: 1.0 mpk sc once a day for 11 days. The class given is in vivo. The text has this:
The objective of this study design is to investigate the efficacy of disclosed compounds in an 11 day rat DIO model used to screen compounds for pharmacologic efficacy on endpoints related to obesity and metabolism. Effects on body weight, food intake, hematology and blood chemistries were the primary readouts of this study design. Male Sprague Dawley rats, approximately 8 weeks of age, were ordered from a certified vendor and housed on irradiated corncob bedding in micro-isolator cages, on a 12-hour light-dark cycle (0700-1900) at 68-74° F. and 30-70% humidity. Rats were fed Research Diets D12451 (45% High Fat) and provided water ad libitum. Rats were received and housed in the facility for at least two or three weeks prior to start of test article administration. On Day −4 or −3, rats were randomized into study groups based on body weight and body weights were continued to be recorded daily for the duration of the study. Daily food intake was assessed starting on Study Day −2 by weighing the hopper including the food to avoid loss of food in transfer.
Compounds were formulated into a 100% DMSO stock (at 9 mg/mL) prior to the start, and further diluted into the target working concentration using the vehicle of 10% DMSO in water. Prior to test article administration, starting on Day −3 a dosing acclimation occurred with all animals receiving a subcutaneous injection of vehicle (10% DMSO) only for 3 days. Starting on Day 1, test compounds or vehicle were administered based on individual body weight, subcutaneously, once a day for 11 days. All animals were sacrificed on Day 11, approximately 2 hours following the final dosing on Day 11. After sacrifice, whole blood was collected and analyzed for hematology and blood chemistry parameters.
Compounds were tested for weight loss vs. vehicle at 0.3 and 1.0 mpk sc (mg per kg animal weight delivered subcutaneously), and the results are shown in Table 2 below.

Structures can show the parent of a compound that is named as a salt.

T1 sequence (P50579 whole entry): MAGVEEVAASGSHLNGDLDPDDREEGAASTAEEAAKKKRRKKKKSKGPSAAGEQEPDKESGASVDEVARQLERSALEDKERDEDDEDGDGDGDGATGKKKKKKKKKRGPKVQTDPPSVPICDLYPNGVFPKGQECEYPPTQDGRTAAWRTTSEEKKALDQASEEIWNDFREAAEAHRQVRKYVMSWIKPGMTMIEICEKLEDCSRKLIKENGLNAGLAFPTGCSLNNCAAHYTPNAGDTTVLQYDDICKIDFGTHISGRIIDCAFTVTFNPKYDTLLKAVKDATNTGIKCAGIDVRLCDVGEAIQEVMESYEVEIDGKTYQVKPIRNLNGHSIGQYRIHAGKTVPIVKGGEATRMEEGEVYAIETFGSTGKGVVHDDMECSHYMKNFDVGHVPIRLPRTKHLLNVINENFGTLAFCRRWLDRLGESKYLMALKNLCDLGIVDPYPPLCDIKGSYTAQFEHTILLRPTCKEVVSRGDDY

As a reminder, the IC50 is the concentration needed to halve the response being measured. For orientation: inhibition in vivo means the change of the read-out against control, counted positive when it falls. In the case of `CO[C@@H]1[C@H](OC(=O)N[C@H](c2cn(C[C@@H]3CCN(C)C3)cn2)C(C)C)CC[C@]2(CO2)[C@H]1[C@@]1(C)O[C@@H]1CC=C(C)C` [Example 13, (3R,4S,5S,6R)-5-methoxy-4-((2R,3R)-2-methyl-3-(3-methylbut-2-enyl)oxiran-2-yl)-1-oxaspiro[2.5]octan-6-yl (S)-2-methyl-1-(1-(((R)-1-methylpyrrolidin-3-yl)methyl)-1H-imidazol-4-yl)propylcarbamate], on recombinant human MetAP2, the IC50 was 50 to 500 nM. The inhibition in vivo at 0.3 mg/kg in experiment [1] came to 8.2%. Moreover, in experiment [2], the “Rat @ 0.3 mpk sc (%) weight loss vs. vehicle” value stood at 11.5% and the “Rat @ 1.0 mpk sc (%) weight loss vs. vehicle” value came out at 22%.
Take `CO[C@@H]1[C@H](OC(=O)N[C@@H](C)Cc2noc(=O)[nH]2)CC[C@]2(CO2)[C@H]1[C@@]1(C)O[C@@H]1CC=C(C)C` [Example 28, (3R,4S,5S,6R)-5-methoxy-4-((2R,3R)-2-methyl-3-(3-methylbut-2-en-1-yl)oxiran-2-yl)-1-oxaspiro[2.5]octan-6-yl ((S)-1-(5-oxo-4,5-dihydro-1,2,4-oxadiazol-3-yl)propan-2-yl)carbamate]: the IC50 on recombinant human MetAP2 was under 50 nM. In addition, in experiment [1], the inhibition in vivo at 0.3 mg/kg is -2.3% and the inhibition in vivo at 1 mg/kg was 4.2%. In addition, the “Rat @ 0.3 mpk sc (%) weight loss vs. vehicle” value in experiment [2] was −1.4%.
Regarding `CO[C@@H]1[C@H](OC(=O)N[C@@H](c2cn(C[C@H]3CCN(C)C3)cn2)C(C)C)CC[C@]2(CO2)[C@H]1[C@@]1(C)O[C@@H]1CC=C(C)C` [Example 12, (3R,4S,5S,6R)-5-methoxy-4-((2R,3R)-2-methyl-3-(3-methylbut-2-enyl)oxiran-2-yl)-1-oxaspiro[2.5]octan-6-yl (R)-2-methyl-1-(1-(((S)-1-methylpyrrolidin-3-yl)methyl)-1H-imidazol-4-yl)propylcarbamate formate], the IC50 on recombinant human MetAP2 was 50 to 500 nM. In addition, the inhibition in vivo at 0.3 mg/kg in experiment [1] was determined as 9.5%. In addition, in experiment [2], the “Rat @ 0.3 mpk sc (%) weight loss vs. vehicle” value is reported as 12.9% and the “Rat @ 1.0 mpk sc (%) weight loss vs. vehicle” value is on record as 18.8%.
`CO[C@@H]1[C@H](OC(=O)N[C@H](Cc2nc(=O)o[nH]2)C(C)C)CC[C@]2(CO2)[C@H]1[C@@]1(C)O[C@@H]1CC=C(C)C` [Example 30, (3R,4S,5S,6R)-5-methoxy-4-((2R,3R)-2-methyl-3-(3-methylbut-2-enyl)oxiran-2-yl)-1-oxaspiro[2.5]octan-6-yl (R)-3-methyl-1-(5-oxo-4,5-dihydro-1,2,4-oxadiazol-3-yl)butan-2-ylcarbamate]: the IC50 at recombinant human MetAP2 was in the range of 50 to 500 nM. Further, in experiment [1], the inhibition in vivo at 0.3 mg/kg is 1.4% and the inhibition in vivo at 1 mg/kg was 14.1%. In experiment [2], the “Rat @ 0.3 mpk sc (%) weight loss vs. vehicle” value is on record as 0.7% and the “Rat @ 1.0 mpk sc (%) weight loss vs. vehicle” value is −0.4%.
On to `CO[C@@H]1[C@H](OC(=O)NCC(C)(C)c2cn(C[C@H]3CCCN3C)cn2)CC[C@]2(CO2)[C@H]1[C@@]1(C)O[C@@H]1CC=C(C)C` [Example 38, (3R,4S,5S,6R)-5-methoxy-4-((2R,3R)-2-methyl-3-(3-methylbut-2-en-1-yl)oxiran-2-yl)-1-oxaspiro[2.5]octan-6-yl (2-methyl-2-(1-(((R)-1-methylpyrrolidin-2-yl)methyl)-1H-imidazol-4-yl)propyl)carbamate], for which the IC50 on recombinant human MetAP2 fell in the range of 50 to 500 nM. In experiment [1], the inhibition in vivo at 0.3 mg/kg turned out to be 5% and the inhibition in vivo at 1 mg/kg amounted to 5.5%. Also, the “Rat @ 0.3 mpk sc (%) weight loss vs. vehicle” value in experiment [2] is recorded as −1.7%.
As for `CO[C@@H]1[C@H](OC(=O)N[C@H](c2nccn2C[C@@H]2CCCN2C)C(C)C)CC[C@]2(CO2)[C@H]1[C@@]1(C)O[C@@H]1CC=C(C)C` [Example 6, (3R,4S,5S,6R)-5-methoxy-4-((2R,3R)-2-methyl-3-(3-methylbut-2-enyl)oxiran-2-yl)-1-oxaspiro[2.5]octan-6-yl (S)-2-methyl-1-(1-(((S)-1-methylpyrrolidin-2-yl)methyl)-1H-imidazol-2-yl)propylcarbamate formate], at recombinant human MetAP2, the IC50 lay in the range of 50 to 500 nM. Further, the inhibition in vivo at 0.3 mg/kg in experiment [1] came to 6.5%. Further, in experiment [2], the “Rat @ 0.3 mpk sc (%) weight loss vs. vehicle” value worked out at 0.1% and the “Rat @ 1.0 mpk sc (%) weight loss vs. vehicle” value came out at 2.1%.
